# Experimental data published in article PMC7238241, “Lack of Correlation between In Vitro and In Vivo Studies on the Inhibitory Effects of (‒)-Sophoranone on CYP2C9 Is Attributable to Low Oral Absorption and Extensive Plasma Protein Binding of (‒)-Sophoranone” (Pharmaceutics, 2020).
# Where two headings read alike, the source gives them in different places.
# Legend:
# CYP2E1 = biological target: T1, CYP2E1 (Homo sapiens, UniProt P05181); assay: Reversible CYP2E1 inhibition, cocktail assay (chlorzoxazone 6-hydroxylase) in human liver microsomes; format: biochemical
# T1 construct: tissue Corning Life Sciences; host or cells: pooled human liver microsomes, 150 donors
# T1 sequence (P05181 whole entry): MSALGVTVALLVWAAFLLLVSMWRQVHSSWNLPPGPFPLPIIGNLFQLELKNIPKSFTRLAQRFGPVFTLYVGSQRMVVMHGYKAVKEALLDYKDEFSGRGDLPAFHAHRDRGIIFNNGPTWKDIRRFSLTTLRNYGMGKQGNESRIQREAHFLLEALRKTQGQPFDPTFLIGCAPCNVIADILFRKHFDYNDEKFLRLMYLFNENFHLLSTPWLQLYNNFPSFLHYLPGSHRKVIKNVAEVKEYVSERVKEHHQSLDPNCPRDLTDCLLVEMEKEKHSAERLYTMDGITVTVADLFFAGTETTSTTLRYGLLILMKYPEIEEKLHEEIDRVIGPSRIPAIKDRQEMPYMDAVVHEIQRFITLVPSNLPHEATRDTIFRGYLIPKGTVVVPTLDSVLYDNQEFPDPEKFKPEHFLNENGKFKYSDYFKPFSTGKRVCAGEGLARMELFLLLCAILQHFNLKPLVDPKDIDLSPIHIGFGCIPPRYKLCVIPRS
# Procedure: (§1) The inhibitory effects of SPN on CYP1A2, CYP2A6, CYP2B6, CYP2C8, CYP2C9, CYP2C19, CYP2D6, CYP2E1, and CYP3A4 were evaluated in pooled human liver microsomes through the use of specific CYP probe substrates (cocktail assay), as previously described with a slight modification. Concentrations of each CYP probe in Table 1 were used close to their reported Km values.
# (§2) Briefly, a 90-µL incubation mixture, including pooled human liver microsomes (final concentration 0.1 mg/mL), 50 mM phosphate buffer (pH 7.4), each CYP-probe substrate cocktail set, and SPN (0–50 μM), was pre-incubated for 5 min at 37 °C. SPN was dissolved in methanol and spiked into the incubation mixture to a final concentration of 0.5% methanol. All P450-selective substrates (except coumarin due to solubility) were dissolved in methanol and serially diluted with methanol to the required concentrations, and the organic solvent was subsequently evaporated under a gentle stream of N2 gas to minimize the effects of organic solvents on CYP activities. On the other hand, coumarin dissolved in 50 mM phosphate buffer (pH 7.4) was directly added into the mixed tube. The reaction was initiated by adding 10-µL aliquot of NADPH-generating system (1.3 mM NADP^+, 3.3 mM glucose 6-phosphate, 3.3 mM MgCl2, and 0.4 unit/mL glucose-6-phosphate dehydrogenase) before 15 min incubation at 37 °C in a shaking water bath. […]
# (§3) The IC50 values were calculated via nonlinear least-squares regression analysis from logarithmic plots of inhibitor concentration versus percentage of activity remaining after inhibition, using SigmaPlot (ver. 14.0; Systat Software Inc, Chicago, IL, USA). The Ki values were determined from the equations for a single substrate single inhibitor model and the software available in the SigmaPlot Enzyme Kinetics module. Competitive, non-competitive, uncompetitive, or mixed inhibition models were evaluated and ranked according to the best fit based on Akaike Information Criterion (AIC) values. […]
# CYP2C9 = biological target: T2, CYP2C9 (Homo sapiens, UniProt P11712); assay: Inhibition of other CYP2C9-specific pathways (diclofenac 4′-hydroxylation, losartan oxidation) in human liver microsomes; format: biochemical
# T2 construct: tissue Corning Life Sciences; host or cells: pooled human liver microsomes, 150 donors
# T2 sequence (P11712 whole entry): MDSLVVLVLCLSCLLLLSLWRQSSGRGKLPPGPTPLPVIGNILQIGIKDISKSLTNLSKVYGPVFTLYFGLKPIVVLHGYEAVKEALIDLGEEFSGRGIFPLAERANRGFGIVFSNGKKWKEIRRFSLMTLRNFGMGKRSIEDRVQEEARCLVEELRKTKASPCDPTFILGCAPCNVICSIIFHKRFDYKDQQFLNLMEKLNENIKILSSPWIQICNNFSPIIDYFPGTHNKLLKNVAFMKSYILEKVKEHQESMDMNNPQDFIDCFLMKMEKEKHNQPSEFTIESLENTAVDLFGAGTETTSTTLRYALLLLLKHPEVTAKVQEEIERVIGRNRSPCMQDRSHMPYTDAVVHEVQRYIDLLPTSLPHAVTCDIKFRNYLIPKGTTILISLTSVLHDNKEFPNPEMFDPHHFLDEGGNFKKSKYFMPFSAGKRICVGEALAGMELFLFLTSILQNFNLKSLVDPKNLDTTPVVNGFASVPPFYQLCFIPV
# Procedure: The auto-optimized mass transitions were m/z 312 > 231 and m/z 437 > 207.1 for quantification of 4′-hydroxydiclofenac and losartan carboxylic acid, respectively. HPLC conditions were the same as those in the cocktail assay.
# The IC50 values were calculated via nonlinear least-squares regression analysis from logarithmic plots of inhibitor concentration versus percentage of activity remaining after inhibition, using SigmaPlot (ver. 14.0; Systat Software Inc, Chicago, IL, USA). The Ki values were determined from the equations for a single substrate single inhibitor model and the software available in the SigmaPlot Enzyme Kinetics module. Competitive, non-competitive, uncompetitive, or mixed inhibition models were evaluated and ranked according to the best fit based on Akaike Information Criterion (AIC) values. For visual inspection, the data were presented as Dixon plots.
# CYP2A6 = biological target: T3, CYP2A6 (Homo sapiens, UniProt P11509); assay: Reversible CYP2A6 inhibition, cocktail assay (coumarin 7-hydroxylase) in human liver microsomes; format: biochemical
# T3 construct: tissue Corning Life Sciences; host or cells: pooled human liver microsomes, 150 donors
# T3 sequence (P11509 1-494): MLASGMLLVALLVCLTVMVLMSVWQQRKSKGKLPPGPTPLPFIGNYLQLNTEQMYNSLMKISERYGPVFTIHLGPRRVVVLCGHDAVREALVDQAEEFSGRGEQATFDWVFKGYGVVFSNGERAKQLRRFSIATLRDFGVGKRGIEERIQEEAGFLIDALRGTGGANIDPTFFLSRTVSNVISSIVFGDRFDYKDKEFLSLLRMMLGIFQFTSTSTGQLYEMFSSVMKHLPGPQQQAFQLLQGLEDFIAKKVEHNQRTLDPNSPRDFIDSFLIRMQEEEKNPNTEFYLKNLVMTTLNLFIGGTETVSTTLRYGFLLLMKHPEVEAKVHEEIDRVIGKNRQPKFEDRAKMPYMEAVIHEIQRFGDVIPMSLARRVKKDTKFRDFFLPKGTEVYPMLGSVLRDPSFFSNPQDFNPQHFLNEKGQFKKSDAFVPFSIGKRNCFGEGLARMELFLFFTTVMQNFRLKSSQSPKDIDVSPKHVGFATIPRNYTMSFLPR
# Procedure: as §1, §2, §3
# CYP2D6 = biological target: T4, CYP2D6 (Homo sapiens, UniProt P10635); assay: Reversible CYP2D6 inhibition, cocktail assay (dextromethorphan O-demethylase) in human liver microsomes; format: biochemical
# T4 construct: tissue Corning Life Sciences; host or cells: pooled human liver microsomes, 150 donors
# T4 sequence (P10635 whole entry): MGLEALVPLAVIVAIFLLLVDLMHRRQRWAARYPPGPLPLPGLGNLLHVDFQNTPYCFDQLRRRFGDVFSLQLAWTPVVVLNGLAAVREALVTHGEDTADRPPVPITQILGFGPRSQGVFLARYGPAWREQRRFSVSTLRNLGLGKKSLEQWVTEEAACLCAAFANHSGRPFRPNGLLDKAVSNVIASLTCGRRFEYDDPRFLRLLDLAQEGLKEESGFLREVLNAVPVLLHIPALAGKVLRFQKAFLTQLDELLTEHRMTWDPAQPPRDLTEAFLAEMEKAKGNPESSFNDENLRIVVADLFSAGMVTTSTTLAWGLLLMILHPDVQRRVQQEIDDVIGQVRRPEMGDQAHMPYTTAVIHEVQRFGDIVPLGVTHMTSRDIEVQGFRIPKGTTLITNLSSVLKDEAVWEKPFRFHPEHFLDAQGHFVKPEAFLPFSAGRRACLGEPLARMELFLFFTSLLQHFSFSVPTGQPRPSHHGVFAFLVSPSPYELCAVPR
# Procedure: as §1
# Briefly, a 90-µL incubation mixture, including pooled human liver microsomes (final concentration 0.1 mg/mL), 50 mM phosphate buffer (pH 7.4), each CYP-probe substrate cocktail set, and SPN (0–50 μM), was pre-incubated for 5 min at 37 °C. SPN was dissolved in methanol and spiked into the incubation mixture to a final concentration of 0.5% methanol. […]
# as §3
# Caco-2 cells = assay: Bi-directional Caco-2 cell permeability; format: in vitro ADME
# Procedure: (§4) Caco-2 cell permeability was assessed to predict the oral absorption of SPN. Cell culture and transport studies were performed as previously described. Briefly, for the bi-directional transport studies, the cells were seeded at a density of 1 × 10^5 cells/well, and the cell medium was replaced until they formed confluent monolayers. On the 25th day, the cell monolayers were washed with pre-warmed HBSS buffer. […] Before the experiment, the integrity of the cell monolayers was evaluated by measuring the transepithelial electrical resistance using a Millicell ohmmeter. After 2 h incubation at 37 °C, samples were withdrawn from both sides, respectively. All samples were stored at −80 °C until LC-MS/MS analysis, and all experiments were performed in triplicate.
# (§5) The apparent permeability coefficient (Papp) was calculated using the following equation. Papp = (Vr/C0) × (1/A) × ([Drug]/t) where, Vr is the volume of medium in the receiver chamber, C0 is the donor compartment concentration at time zero, A is the area of the cell monolayer, t is the treatment time of the drug, and [Drug] is the drug concentration in the receiver chamber.
# [1] = Bi-directional Caco-2 cell permeability; format: in vitro ADME; conditions: human, Caco-2
# Procedure: as §4, §5
# [2] = at the highest tested concentration (50 μM)
smiles,measurement,setting,value
"CC(C)=CCc1cc([C@@H]2CC(=O)c3ccc(O)c(CC=C(C)C)c3O2)cc(CC=C(C)C)c1O [SPN, (‒)-Sophoranone]","residual enzyme activity, CYP2E1",CYP2E1; [2],greater than 80%
same,IC50,"CYP2E1; human liver microsomes 0.1 mg/mL, cocktail assay, chlorzoxazone probe, n = 3, read-out: IC50 Values, CYP2E1",> 50000 nM
same,IC50,"CYP2C9; IC50, CYP2C9-catalyzed diclofenac 4′-hydroxylation, diclofenac 5 μM",879 ± 88.8 nM
same,IC50,"CYP2C9; losartan 5 μM, read-out: IC50, CYP2C9-catalyzed losartan oxidation",455 ± 48.6 nM
same,"residual enzyme activity, CYP2A6",CYP2A6; [2],greater than 80%
same,IC50,"CYP2A6; human liver microsomes 0.1 mg/mL, cocktail assay, coumarin probe, n = 3, read-out: IC50 Values, CYP2A6",> 50000 nM
same,"residual enzyme activity, CYP2D6",CYP2D6; [2],53.9 ± 3.53%
same,IC50,"CYP2D6; human liver microsomes 0.1 mg/mL, cocktail assay, dextromethorphan probe, n = 3",> 50000 nM
same,Papp A-to-B as % of propranolol Papp,Caco-2 cells; 10 μM,0.429%
same,Papp A-to-B as % of propranolol Papp,Caco-2 cells; 50 μM,0.642%
same,"Papp A→B at 2 h, 10 µM","[1]; 10 μM, 2 h, n = 3",0.115 ± 0.0369 ×10⁻⁶ cm/s
same,"Papp B→A at 2 h, 10 µM","[1]; 10 μM, 2 h, n = 3",0.101 ± 0.00444 ×10⁻⁶ cm/s
same,"Papp A→B at 2 h, 50 µM","[1]; 50 μM, 2 h, n = 3",0.172 ± 0.0488 ×10⁻⁶ cm/s
same,"Papp B→A at 2 h, 50 µM","[1]; 50 μM, 2 h, n = 3",0.152 ± 0.0353 ×10⁻⁶ cm/s
same,efflux ratio at 2 h,"[1]; not a substrate for P-gp and BCRP, read-out: efflux ratio (B-to-A/A-to-B)",< 2
